Like-named read-outs stand apart in the source and are kept apart here.
Key:
[1] = human, cited from earlier work; for Rb_Human: blood-to-plasma concentration ratio, median if multiple values reported, Reference of Table S1
[2] = test system: plasma protein; settings: cited from earlier work; for fp_Human (free fraction in plasma): human
[3] = human, cited from earlier work
[4] = cited from earlier work
[5] = test system: plasma protein; assay: Measurement of PPB by equilibrium dialysis in pooled human plasma (free fraction); settings: for fp_Human: human plasma free fraction, footnote b: fu is our experimental data; for fraction unbound at 5 h, 5 µM: human, pooled human plasma
Description: Pooled human plasma was obtained from heparinized blood from nine to ten healthy volunteers not medicated for at least seven days. The human blood collection and PPB experimental protocols were approved by the Ethical Review Committee of Japan Tobacco Inc, Central Pharmaceutical Research Institute. Informed consent was obtained from all subjects, and the PPB experiments were conducted in accordance with the Ethical Guidelines for Medical and Health Research Involving Human Subjects. Binding of compounds to plasma protein was evaluated by equilibrium dialysis utilizing a 96-well equilibrium dialysis unit and HTD96b dialysis membrane strips with a molecular cutoff of 12–14 kDa (HTDialysis, Gales Ferry, CT, USA). Plasma containing the compounds (final concentration of 5 µM) and buffer (Dulbecco’s phosphate-buffered saline; Thermo Fisher Scientific, Waltham, MA) were added into the donor and receiver cells, respectively. Following dialysis for 5 h at 37 °C, the concentrations of the compounds in the plasma and buffer were determined by liquid chromatography–tandem mass spectrometry (LC–MS/MS) (Acquity™ Ultra Performance LC I-Class and Xevo TQ-S; Waters, Milford, MA). The percentage of free fraction (fu) was calculated according to the following equation [17]:1 Freefraction(fu,%)=Concentrationofbuffer/Concentrationofplasma×100

[6] = median if multiple values were reported, ref numbers in Table S1
[7] = collected value, median if multiple values were reported, ref: Table S1
[8] = intravenous, median if multiple values were reported, ref numbers in Table S1
[9] = human, intravenous, median if multiple values were reported, ref numbers in Table S1
[10] = free fraction in human plasma, median if multiple values reported, Reference of Table S1
[11] = intravenous, median if multiple values reported, Reference of Table S1
[12] = human, intravenous, median if multiple values reported, Reference of Table S1

Molecule	in vivo MRT_(hr)_Human (human) [h]	Rb_Human (blood-to-plasma concentration ratio) [1, 6]	fp_Human (free fraction in plasma) [2, 7]	in vivo Vd_(L/kg)_Human [3, 8] [L/kg]	in vivo CL_(L/hr/kg)_Human [4, 9] [L/h/kg]	Rb_Human [1]	fp_Human [2, 10]	in vivo Vd_(L/kg)_Human [3, 11] [L/kg]	in vivo CL_(L/hr/kg)_Human [4, 12] [L/h/kg]	other results
CO[C@@]1(NC(=O)C2SC(=C(C(N)=O)C(=O)O)S2)C(=O)N2C(C(=O)O)=C(CSc3nnnn3C)CS[C@@H]21 (stereo partly shown) [Cefotetan]	5.159	0.65	0.150	0.130	0.025	–	–	–	–	–
CC(C)(O/N=C(\C(=O)N[C@@H]1C(=O)N2C(C(=O)[O-])=C(C[n+]3ccccc3)CS[C@H]12)c1csc(N)n1)C(=O)O [Ceftazidime]	2.153	0.72	0.790	0.310	0.144	–	–	–	–	–
CN(C)CCC(c1ccc(Cl)cc1)c1ccccn1 (stereo not shown) [Chlorpheniramine]	22.000	1.34	0.280	3.300	0.150	–	–	–	–	–
Clc1cccc(Cl)c1N=C1NCCN1 [Clonidine]	13.750	1.04	0.560	3.300	0.213	–	–	–	–	–
OCCN1CCN(CCCN2c3ccccc3Sc3ccc(C(F)(F)F)cc32)CC1 [Fluphenazine]	4.983	0.69	0.040	2.900	0.591	–	–	–	–	–
C[C@@H]1C[C@H]2[C@@H]3C[C@H](F)C4=CC(=O)C=C[C@]4(C)[C@@]3(F)[C@@H](O)C[C@]2(C)[C@@]1(O)C(=O)SCF [Fluticasone]	3.529	0.60	0.100	3.600	1.020	–	–	–	–	–
CCCCC1=NC2(CCCC2)C(=O)N1Cc1ccc(-c2ccccc2-c2nnn[nH]2)cc1 [Irbesartan]	6.812	0.60	0.100	0.940	0.133	–	–	–	–	–
O=C(c1ccccc1)c1ccc2n1CCC2C(=O)O (stereo not shown) [Ketorolac]	–	–	–	–	–	–	–	–	–	fp_Human [5]: 0.016; fraction unbound at 5 h, 5 µM [5]: 0.016
CNCCCC12CCC(c3ccccc31)c1ccccc12 [Maprotiline]	53.571	1.70	0.115	45.000	0.840	–	–	–	–	–
N[C@@H](Cc1ccc(N(CCCl)CCCl)cc1)C(=O)O [Melphalan]	1.143	–	0.120	–	0.366	–	–	–	–	Rb_Human (blood-to-plasma concentration ratio) ([1]; plasma): 0.96; in vivo Vd_(L/kg)_Human ([3]; in vivo, iv): 0.480 L/kg
CCOC(=O)C1(c2ccccc2)CCN(C)CC1 [Meperidine]	11.395	1.01	0.380	3.350	1.020	–	–	–	–	–
COCCc1ccc(OCC(O)CNC(C)C)cc1 (stereo not shown) [Metoprolol]	–	–	–	–	–	–	–	–	–	fp_Human [5]: 0.901; fraction unbound at 5 h, 5 µM [5]: 0.901
Cc1cccc(C)c1OCC(C)N (stereo not shown) [Mexiletine]	11.847	1.12	0.350	5.900	0.498	–	–	–	–	–
Cc1ncc2n1-c1ccc(Cl)cc1C(c1ccccc1F)=NC2 [Midazolam]	3.459	0.68	0.030	–	0.318	–	–	–	–	fp_Human [2]: 0.030; in vivo Vd_(L/kg)_Human ([3]; in vivo, iv): 1.100 L/kg
CC(C)=CCN1CCC2(C)c3cc(O)ccc3CC1C2C (stereo not shown) [Pentazocine]	2.464	1.07	0.380	–	1.380	–	–	–	–	in vivo Vd_(L/kg)_Human ([3]; in vivo, iv): 3.400 L/kg
CCCNC(C)C(=O)Nc1ccccc1C (stereo not shown) [Prilocaine]	2.126	–	–	–	–	1.25	0.665	3.700	1.740	–
CO[C@H]1/C=C/O[C@@]2(C)Oc3c(C)c(O)c4c(c3C2=O)C2=NC3(CCN(CC(C)C)CC3)NC2=C(NC(=O)/C(C)=C\C=C\[C@H](C)[C@H](O)[C@@H](C)[C@@H](O)[C@@H](C)[C@H](OC(C)=O)[C@@H]1C)C4=O [Rifabutin]	64.583	–	–	–	–	0.59	0.290	9.300	0.144	–
CN(C)CCc1c[nH]c2ccc(Cn3cncn3)cc12 [Rizatriptan]	1.979	–	–	–	–	1.04	0.860	1.900	0.960	–
C=CC[N+]1([C@H]2C[C@H]3[C@@H]4CC[C@H]5C[C@H](O)[C@@H](N6CCOCC6)C[C@]5(C)[C@H]4CC[C@]3(C)[C@H]2OC(C)=O)CCCC1 [Rocuronium]	0.946	–	–	–	–	1.00	0.540	0.210	0.239	–
CN(c1nc2ccccc2s1)C1CCN(CC(O)COc2ccc(F)cc2)CC1 (stereo not shown) [Sabeluzole]	22.634	–	–	–	–	0.82	0.012	5.500	0.243	–
Cc1ccsc1C(=CCCN1CCC[C@@H](C(=O)O)C1)c1sccc1C [Tiagabine]	11.458	–	–	–	–	0.65	0.040	1.100	0.096	–
O=P(O)(O)C(Sc1ccc(Cl)cc1)P(=O)(O)O [Tiludronate]	55.556	–	–	–	–	0.60	0.100	1.000	0.018	–
Cc1ccccc1OCC(O)CNCCOc1ccc(C(N)=O)cc1 (stereo not shown) [Tolamolol]	4.762	–	–	–	–	0.76	0.089	4.000	0.840	–
O=c1n(CCCN2CCN(c3cccc(Cl)c3)CC2)nc2ccccn12 [Trazodone]	6.190	–	–	–	–	0.81	0.073	0.520	0.084	–
CCC1=C[C@@H]2CN(C1)Cc1c([nH]c3ccccc13)[C@@](C(=O)OC)(c1cc3c(cc1OC)N(C)[C@H]1[C@@](O)(C(=O)OC)[C@H](OC(C)=O)[C@]4(CC)C=CCN5CC[C@]31[C@@H]54)C2 [Vinorelbine]	19.167	–	–	–	–	0.58	0.870	23.000	1.230	–
Cc1cn([C@H]2C[C@H](N=[N+]=[N-])[C@@H](CO)O2)c(=O)[nH]c1=O [Zidovudine]	1.067	–	–	–	–	1.11	0.700	1.600	1.500	–
Doxycycline	–	–	–	–	–	–	–	–	–	in vivo MRT_(hr)_Human: 25.000 h; Rb_Human (blood-to-plasma concentration ratio) ([1]; plasma): 1.70; fp_Human (free fraction in plasma) ([2]; plasma): 0.120; in vivo Vd_(L/kg)_Human ([3]; in vivo, iv): 0.690 L/kg; in vivo CL_(L/hr/kg)_Human ([4]; in vivo, iv): 0.030 L/h/kg
